The source made the active and inactive calls. The calls are words filed in the database; no cut-off is given here.
Legend:
[1] = molecular target: T1, Kappa-type opioid receptor (Homo sapiens, UniProt P41145); assay: Agonist activity at human kappa opioid receptor expressed in CHO cells assessed as stimulation of [35S]GTPgammaS binding; type: functional, cell-based
[2] = molecular target: T2, Mu-type opioid receptor (Homo sapiens, UniProt P35372); assay: Antagonist activity at human mu opioid receptor expressed in CHO cells assessed as inhibition of DAMGO-induced [35S]GTPgammaS binding; type: functional, cell-based
T2 sequence (P35372 whole entry): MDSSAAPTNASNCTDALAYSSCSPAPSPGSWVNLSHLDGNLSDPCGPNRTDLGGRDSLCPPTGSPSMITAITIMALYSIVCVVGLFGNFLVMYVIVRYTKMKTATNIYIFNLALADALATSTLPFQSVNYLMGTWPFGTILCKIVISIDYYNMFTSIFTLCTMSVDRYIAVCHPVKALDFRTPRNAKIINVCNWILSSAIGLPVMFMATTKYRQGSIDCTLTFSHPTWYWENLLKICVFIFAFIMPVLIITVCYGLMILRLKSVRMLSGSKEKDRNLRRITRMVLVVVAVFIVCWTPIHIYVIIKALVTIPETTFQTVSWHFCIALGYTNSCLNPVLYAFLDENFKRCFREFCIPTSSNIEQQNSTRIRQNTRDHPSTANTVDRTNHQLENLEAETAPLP

[3] = molecular target: T2, Mu-type opioid receptor; assay: Agonist activity at human mu opioid receptor expressed in CHO cells assessed as stimulation of [35S]GTPgammaS binding relative to basal [35S]GTPgammaS binding; type: functional, cell-based
[4] = molecular target: Delta-type opioid receptor (Homo sapiens, UniProt P41143); assay: Displacement of [3H]Naltrindole from human delta opioid receptor expressed in CHO cells; type: cell-based
Chain of Delta-type opioid receptor (P41143 whole entry): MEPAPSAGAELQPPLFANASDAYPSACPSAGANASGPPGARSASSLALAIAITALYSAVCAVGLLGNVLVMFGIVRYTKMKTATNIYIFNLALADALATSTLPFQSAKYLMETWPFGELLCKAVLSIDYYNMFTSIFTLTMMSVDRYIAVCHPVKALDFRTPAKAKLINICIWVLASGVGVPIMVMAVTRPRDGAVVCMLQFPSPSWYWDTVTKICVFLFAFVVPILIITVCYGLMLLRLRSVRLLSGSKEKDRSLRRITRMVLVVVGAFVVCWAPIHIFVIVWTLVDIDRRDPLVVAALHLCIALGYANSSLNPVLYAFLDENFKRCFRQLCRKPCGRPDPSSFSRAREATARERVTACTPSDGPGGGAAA

[5] = molecular target: T1, Kappa-type opioid receptor; assay: Displacement of [3H]U69,593 from human kappa opioid receptor expressed in CHO cells; type: cell-based
[6] = molecular target: T2, Mu-type opioid receptor; assay: Displacement of [3H]DAMGO from human mu opioid receptor expressed in CHO cells; type: cell-based
[7] = molecular target: T2, Mu-type opioid receptor; assay: Agonist activity at human mu opioid receptor expressed in CHO cells assessed as stimulation of [35S]GTPgammaS binding; type: functional, cell-based
[8] = system: CHO; assay: Ratio of Ki for human mu opioid receptor to Ki for human kappa opioid receptor expressed in CHO cells; type: cell-based
[9] = system: CHO; assay: Ratio of Ki for human delta opioid receptor to Ki for human kappa opioid receptor expressed in CHO cells; type: cell-based
[10] = molecular target: T2, Mu-type opioid receptor; assay: Antagonist activity at human mu opioid receptor expressed in CHO cells assessed as inhibition of DAMGO-induced [35S]GTPgammaS binding at 10 uM; type: functional, cell-based
[11] = Displacement of [3H]Naltrindole from human delta opioid receptor expressed in CHO cells

T1 sequence (P41145 whole entry): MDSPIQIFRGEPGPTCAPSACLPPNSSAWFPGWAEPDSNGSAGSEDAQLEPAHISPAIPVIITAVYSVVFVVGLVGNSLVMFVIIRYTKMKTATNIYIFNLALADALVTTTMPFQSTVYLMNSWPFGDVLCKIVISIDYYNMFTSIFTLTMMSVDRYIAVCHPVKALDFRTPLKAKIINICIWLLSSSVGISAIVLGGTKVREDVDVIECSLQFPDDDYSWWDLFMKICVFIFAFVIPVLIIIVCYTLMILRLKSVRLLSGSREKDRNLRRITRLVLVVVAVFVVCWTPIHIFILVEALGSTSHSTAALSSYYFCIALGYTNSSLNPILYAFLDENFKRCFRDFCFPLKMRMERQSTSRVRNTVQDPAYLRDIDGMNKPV

SMILES	EC50 [1] [nM]	Imax [2]	Emax [3] [%]	Ki [4] [nM]	Ki [5] [nM]	Ki [6] [nM]	Ratio Ki [8]	Ratio Ki [9]	also measured
C[C@H]1C2Cc3ccc4[nH]nnc4c3[C@@]1(C)CCN2CC1CC1	8.6	98%	0.58	–	–	–	–	–	IC50 ([2]; read-out: IC50): 99 nM
C[C@H]1[C@H]2Cc3ccc(O)cc3[C@]1(C)CCN2CC1CC1 [CYCLAZOCINE]	1.3	–	–	2	0.07	–	–	–	–
Cc1nc2cc3c(cc2[nH]1)[C@@]1(C)CCN(CC2CC2)C(C3)[C@@H]1C	5.8	100%	55	18	0.05	0.77	–	–	IC50 ([2]; read-out: IC50): 11000 nM; EC50 [7]: 18 nM
C[C@H]1C2Cc3ccc4[nH]cnc4c3[C@@]1(C)CCN2CC1CC1	–	–	–	680	0.92	9.5	10	740	–
C[C@H]1C2Cc3cc4nn[nH]c4cc3[C@@]1(C)CCN2CC1CC1	77	–	< 20	–	–	–	–	–	Imax [10]: 73%
C[C@H]1C2Cc3cc4nc[nH]c4cc3[C@@]1(C)CCN2CC1CC1	–	89%	22	–	–	–	–	–	–
Cc1nc2c3c(ccc2[nH]1)CC1[C@H](C)[C@]3(C)CCN1CC1CC1	–	–	–	160	0.51	2.5	5	310	–
C[C@@H](NC(=O)[C@@H](N)Cc1ccc(O)cc1)C(=O)NCC(=O)N(C)[C@@H](Cc1ccccc1)C(=O)NCCO [DAMGO]	–	inactive	–	–	–	–	–	–	IC50 ([2]; cho): Not Active
C[C@H]1C2Cc3cc4cc[nH]c4cc3[C@@]1(C)CCN2CC1CC1	–	–	–	–	7	18	3	36	Ki [11]: 250 nM
C[C@H]1C2Cc3cc4nc(O)[nH]c4cc3[C@@]1(C)CCN2CC1CC1	–	–	–	730	12	60	5	61	–
C[C@H]1C2Cc3cc4[nH]cnc4cc3[C@@]1(C)CCN2CC1CC1	4.7	–	–	5.1	0.063	0.31	–	–	IC50 ([2]; read-out: IC50): 170 nM; EC50 [7]: 9.8 nM

Source: ChEMBL document CHEMBL1136834 (Bioorg Med Chem Lett, 2009)
